Test results as given in patent US10245261B2, “Substituted indol-5-ol derivatives and their therapeutic applications” (NantBioScience, Inc., priority 2013, dated 2019).
Read-outs that look alike come from different tables or passages of the source.

Legend:
Experiment in all cases: KinaseProfiler kinase assay
Type in all cases: biochemical
Abl(h) = Abl(h) (Homo sapiens, UniProt P00519)
Aurora-A(h) = molecular target: T1, Aurora-A(h) (Homo sapiens, UniProt O14965); conditions: for inhibition at 1 µM: read-out: % Inhibition @1 μM Auroro-A
T1 sequence (O14965 1-403): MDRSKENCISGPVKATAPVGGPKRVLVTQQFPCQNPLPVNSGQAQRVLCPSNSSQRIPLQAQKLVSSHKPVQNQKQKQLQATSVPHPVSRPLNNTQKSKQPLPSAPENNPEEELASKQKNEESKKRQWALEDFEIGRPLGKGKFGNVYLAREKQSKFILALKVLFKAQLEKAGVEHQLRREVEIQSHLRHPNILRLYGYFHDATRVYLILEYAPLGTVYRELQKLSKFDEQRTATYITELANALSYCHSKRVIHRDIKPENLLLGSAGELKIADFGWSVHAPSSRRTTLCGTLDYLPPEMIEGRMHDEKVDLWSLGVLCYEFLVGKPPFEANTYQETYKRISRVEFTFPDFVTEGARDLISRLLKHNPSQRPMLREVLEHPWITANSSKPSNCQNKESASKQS
Procedure, shortened: (§1)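 Kinase activity is followed by incorporation of 33P from [γ-33P]ATP in 8 mM MOPS pH 7.0 with 10 mM Mg acetate and 0.2 mM EDTA over 40 min at room temperature. Inhibition is scaled between no-kinase and phosphopeptide control wells.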

FGFR1(h) = FGFR1(h) (Homo sapiens, UniProt P11362)
Sequence of FGFR1(h) (P11362 22-822): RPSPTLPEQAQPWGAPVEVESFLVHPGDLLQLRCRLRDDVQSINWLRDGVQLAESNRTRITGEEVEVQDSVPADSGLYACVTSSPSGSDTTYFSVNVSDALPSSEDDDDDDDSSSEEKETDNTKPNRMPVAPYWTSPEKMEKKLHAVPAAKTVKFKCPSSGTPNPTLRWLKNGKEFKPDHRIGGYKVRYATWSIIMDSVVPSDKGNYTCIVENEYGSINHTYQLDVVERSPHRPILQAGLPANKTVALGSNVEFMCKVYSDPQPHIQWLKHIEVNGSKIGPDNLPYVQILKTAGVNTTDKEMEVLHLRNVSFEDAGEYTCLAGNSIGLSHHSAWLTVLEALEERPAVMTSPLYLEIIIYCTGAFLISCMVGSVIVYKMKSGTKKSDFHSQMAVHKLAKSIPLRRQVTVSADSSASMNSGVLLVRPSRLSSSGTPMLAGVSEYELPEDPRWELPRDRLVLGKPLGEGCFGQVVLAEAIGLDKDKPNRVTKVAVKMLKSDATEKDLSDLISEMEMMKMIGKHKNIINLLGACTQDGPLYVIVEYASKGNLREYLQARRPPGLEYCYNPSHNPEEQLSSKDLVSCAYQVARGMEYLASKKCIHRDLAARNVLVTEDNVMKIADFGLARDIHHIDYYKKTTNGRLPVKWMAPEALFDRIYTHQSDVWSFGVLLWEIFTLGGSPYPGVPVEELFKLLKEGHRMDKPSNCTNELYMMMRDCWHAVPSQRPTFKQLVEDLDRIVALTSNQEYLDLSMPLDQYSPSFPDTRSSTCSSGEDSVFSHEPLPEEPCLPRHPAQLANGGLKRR
Procedure, shortened: as §1

Flt3(h) = molecular target: T2, Flt3(h) (Homo sapiens, UniProt P36888)
T2 sequence (P36888 27-993): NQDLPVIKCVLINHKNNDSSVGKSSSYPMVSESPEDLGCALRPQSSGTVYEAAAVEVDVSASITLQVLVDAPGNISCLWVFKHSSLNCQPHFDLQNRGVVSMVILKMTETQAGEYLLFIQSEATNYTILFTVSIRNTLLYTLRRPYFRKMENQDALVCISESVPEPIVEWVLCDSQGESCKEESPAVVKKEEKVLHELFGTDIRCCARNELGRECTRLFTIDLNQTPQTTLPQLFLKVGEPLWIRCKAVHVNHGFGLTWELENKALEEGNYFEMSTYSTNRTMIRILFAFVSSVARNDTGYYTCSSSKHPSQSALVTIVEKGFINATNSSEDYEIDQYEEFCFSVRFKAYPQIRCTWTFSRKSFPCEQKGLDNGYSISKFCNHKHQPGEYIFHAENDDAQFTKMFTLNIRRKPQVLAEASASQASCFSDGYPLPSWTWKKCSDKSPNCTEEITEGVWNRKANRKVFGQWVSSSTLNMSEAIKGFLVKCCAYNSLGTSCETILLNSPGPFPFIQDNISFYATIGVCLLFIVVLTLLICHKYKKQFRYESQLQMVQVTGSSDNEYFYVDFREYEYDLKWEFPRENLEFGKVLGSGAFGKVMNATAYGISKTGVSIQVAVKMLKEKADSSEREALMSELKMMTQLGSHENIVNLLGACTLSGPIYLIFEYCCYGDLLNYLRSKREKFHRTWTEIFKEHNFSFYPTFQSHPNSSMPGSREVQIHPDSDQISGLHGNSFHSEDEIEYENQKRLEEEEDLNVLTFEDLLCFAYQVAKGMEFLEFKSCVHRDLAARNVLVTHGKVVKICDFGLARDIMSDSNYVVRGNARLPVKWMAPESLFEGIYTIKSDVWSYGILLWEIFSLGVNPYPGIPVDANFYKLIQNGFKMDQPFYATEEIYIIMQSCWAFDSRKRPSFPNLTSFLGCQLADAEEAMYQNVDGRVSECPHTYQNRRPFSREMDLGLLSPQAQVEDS
Procedure, shortened: as §1

Ret(h) = Ret(h) (Homo sapiens, UniProt P07949)
Sequence of Ret(h) (P07949 29-1114): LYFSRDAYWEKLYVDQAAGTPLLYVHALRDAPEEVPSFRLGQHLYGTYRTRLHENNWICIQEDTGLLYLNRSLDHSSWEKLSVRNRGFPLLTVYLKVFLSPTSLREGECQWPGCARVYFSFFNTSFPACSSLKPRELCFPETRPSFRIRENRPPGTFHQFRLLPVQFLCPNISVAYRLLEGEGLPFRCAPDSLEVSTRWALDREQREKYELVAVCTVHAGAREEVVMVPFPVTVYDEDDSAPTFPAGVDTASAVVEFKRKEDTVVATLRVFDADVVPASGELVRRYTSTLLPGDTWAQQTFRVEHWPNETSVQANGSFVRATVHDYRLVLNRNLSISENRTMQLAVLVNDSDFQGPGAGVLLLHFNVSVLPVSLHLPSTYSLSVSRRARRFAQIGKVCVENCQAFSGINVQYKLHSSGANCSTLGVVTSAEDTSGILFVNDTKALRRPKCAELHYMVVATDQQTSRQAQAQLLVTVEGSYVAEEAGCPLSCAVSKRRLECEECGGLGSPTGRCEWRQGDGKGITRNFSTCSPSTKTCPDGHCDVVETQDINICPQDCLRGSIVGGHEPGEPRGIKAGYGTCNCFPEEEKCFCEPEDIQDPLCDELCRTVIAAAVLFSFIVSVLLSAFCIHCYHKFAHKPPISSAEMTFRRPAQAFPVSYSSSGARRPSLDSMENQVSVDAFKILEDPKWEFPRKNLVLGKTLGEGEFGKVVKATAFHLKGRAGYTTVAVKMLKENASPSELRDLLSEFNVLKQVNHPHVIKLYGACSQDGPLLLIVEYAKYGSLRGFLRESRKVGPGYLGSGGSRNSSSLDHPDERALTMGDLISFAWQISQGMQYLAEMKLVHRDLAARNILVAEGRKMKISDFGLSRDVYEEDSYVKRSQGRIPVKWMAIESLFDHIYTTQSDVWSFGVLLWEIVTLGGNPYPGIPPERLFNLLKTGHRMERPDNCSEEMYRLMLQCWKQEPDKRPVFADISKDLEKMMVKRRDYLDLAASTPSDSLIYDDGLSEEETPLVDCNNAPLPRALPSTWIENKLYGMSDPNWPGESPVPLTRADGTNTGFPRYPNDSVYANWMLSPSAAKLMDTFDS
Procedure, shortened: as §1

cSRC(h) = cSRC(h) (Homo sapiens, UniProt P12931)
Sequence of cSRC(h) (P12931 whole entry): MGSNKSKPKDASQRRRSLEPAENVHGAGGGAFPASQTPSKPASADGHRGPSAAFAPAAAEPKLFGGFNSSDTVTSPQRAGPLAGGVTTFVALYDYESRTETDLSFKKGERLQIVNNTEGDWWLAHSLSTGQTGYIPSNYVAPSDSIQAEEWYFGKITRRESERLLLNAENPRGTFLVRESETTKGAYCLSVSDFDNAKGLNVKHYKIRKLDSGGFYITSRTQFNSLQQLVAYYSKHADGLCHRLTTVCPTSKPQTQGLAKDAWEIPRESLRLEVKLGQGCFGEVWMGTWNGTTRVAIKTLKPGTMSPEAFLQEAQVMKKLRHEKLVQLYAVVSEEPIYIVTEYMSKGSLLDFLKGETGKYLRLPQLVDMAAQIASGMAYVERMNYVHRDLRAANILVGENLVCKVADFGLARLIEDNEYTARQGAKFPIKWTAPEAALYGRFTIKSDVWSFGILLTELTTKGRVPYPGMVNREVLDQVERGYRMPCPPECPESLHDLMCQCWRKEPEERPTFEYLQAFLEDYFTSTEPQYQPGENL
Procedure, shortened: as §1

KDR(h) = KDR(h) (Homo sapiens, UniProt P35968)
Sequence of KDR(h) (P35968 20-1356): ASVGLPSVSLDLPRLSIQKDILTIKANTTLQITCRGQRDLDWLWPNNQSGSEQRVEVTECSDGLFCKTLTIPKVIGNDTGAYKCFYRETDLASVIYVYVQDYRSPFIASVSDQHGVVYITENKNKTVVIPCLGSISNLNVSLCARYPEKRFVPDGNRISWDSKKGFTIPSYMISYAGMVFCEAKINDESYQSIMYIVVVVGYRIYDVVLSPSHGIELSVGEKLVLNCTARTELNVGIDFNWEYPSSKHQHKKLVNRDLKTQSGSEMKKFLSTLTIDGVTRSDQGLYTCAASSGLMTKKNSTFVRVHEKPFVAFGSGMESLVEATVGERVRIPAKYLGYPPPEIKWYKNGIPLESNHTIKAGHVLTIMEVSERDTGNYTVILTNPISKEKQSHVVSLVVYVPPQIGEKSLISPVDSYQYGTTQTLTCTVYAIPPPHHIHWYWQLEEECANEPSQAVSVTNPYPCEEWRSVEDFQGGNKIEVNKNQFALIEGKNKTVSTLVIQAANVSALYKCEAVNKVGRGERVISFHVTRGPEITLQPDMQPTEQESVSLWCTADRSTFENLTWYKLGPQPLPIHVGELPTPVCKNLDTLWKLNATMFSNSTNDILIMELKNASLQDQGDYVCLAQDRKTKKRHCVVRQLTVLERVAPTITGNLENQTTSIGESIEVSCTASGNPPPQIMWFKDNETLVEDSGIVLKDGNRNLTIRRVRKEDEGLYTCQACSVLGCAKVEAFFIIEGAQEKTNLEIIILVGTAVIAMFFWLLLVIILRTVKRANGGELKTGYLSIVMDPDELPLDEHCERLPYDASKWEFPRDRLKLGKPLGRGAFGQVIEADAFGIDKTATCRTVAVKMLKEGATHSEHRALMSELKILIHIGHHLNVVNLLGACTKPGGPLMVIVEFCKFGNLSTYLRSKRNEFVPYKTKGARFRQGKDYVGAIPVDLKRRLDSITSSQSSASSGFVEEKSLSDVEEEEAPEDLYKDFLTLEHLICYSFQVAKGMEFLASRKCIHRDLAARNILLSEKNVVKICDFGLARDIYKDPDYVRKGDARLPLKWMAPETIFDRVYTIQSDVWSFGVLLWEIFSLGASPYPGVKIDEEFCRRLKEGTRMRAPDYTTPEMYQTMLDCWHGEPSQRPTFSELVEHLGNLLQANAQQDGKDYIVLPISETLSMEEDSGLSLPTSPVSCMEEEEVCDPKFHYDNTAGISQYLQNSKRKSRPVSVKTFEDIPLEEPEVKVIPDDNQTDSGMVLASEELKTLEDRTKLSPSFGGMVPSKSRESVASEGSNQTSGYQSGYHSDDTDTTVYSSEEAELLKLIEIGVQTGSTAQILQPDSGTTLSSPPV

[1] = read-out: IC50 (nM) Auroro-A (h)

Sequence of Abl(h) (P00519 whole entry): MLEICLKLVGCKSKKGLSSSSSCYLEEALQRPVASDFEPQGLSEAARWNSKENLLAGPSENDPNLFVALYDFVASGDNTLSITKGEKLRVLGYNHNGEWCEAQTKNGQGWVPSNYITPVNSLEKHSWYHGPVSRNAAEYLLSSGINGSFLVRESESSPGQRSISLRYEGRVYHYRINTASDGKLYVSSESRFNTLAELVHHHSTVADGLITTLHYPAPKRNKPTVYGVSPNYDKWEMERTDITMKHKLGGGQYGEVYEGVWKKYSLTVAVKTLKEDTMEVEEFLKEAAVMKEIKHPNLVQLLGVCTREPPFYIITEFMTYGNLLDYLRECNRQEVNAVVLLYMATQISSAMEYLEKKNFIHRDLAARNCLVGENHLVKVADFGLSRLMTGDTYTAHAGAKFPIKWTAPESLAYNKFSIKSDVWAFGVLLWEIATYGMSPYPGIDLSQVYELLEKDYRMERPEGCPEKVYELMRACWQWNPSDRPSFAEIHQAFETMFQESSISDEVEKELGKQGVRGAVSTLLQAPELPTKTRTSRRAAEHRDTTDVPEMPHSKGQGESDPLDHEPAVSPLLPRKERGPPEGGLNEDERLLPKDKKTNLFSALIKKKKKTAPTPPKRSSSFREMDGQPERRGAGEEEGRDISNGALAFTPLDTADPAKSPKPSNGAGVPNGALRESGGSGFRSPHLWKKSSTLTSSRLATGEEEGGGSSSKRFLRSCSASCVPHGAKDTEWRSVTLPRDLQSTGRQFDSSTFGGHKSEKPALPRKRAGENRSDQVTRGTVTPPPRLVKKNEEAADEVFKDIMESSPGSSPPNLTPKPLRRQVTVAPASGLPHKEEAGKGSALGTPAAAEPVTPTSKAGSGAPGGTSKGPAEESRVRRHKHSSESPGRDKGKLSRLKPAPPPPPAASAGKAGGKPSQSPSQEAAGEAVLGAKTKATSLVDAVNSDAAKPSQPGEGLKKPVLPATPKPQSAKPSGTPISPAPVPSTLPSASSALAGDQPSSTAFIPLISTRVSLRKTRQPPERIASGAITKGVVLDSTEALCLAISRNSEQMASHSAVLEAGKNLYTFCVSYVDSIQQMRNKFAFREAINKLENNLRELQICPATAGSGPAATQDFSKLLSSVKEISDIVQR

Row | SMILES | inhibition at 1 µM (Abl(h)) [%] | IC50 (Abl(h); read-out: IC50 (nM) Abl (h)) [nM] | inhibition at 1 µM (Aurora-A(h)) [%] | IC50 (Aurora-A(h); [1]) [nM] | IC50 (FGFR1(h); read-out: IC50 (nM) FGFR1 (h)) [nM] | inhibition at 1 µM (Flt3(h)) [%] | IC50 (Flt3(h); read-out: IC50 (nM) Flt3 (h)) [nM] | inhibition at 1 µM (Ret(h)) [%] | inhibition at 1 µM (cSRC(h)) [%] | IC50 (cSRC(h); read-out: IC50 (nM) cSrc (h)) [nM] | inhibition at 1 µM (KDR(h)) [%] | IC50 (KDR(h); read-out: IC50 (nM) KDR (h)) [nM] | inhibition at 0.1 µM (Abl(h)) [%] | inhibition at 0.1 µM (Aurora-A(h)) [%] | inhibition at 0.1 µM (FGFR1(h)) [%] | inhibition at 0.1 µM (Flt3(h)) [%] | inhibition at 0.1 µM (Ret(h)) [%] | inhibition at 0.1 µM (cSRC(h)) [%] | inhibition at 0.1 µM (KDR(h)) [%] | also measured
1 | Cc1cc2c(F)c(Oc3nc(Nc4cc(C5CC5)[nH]n4)cc(N4CCNCC4)n3)cc(F)c2[nH]1 [Compound 82] | 106 | 0.2 | 100 | 4 | 0.6 | 100 | 6 | 100 | 100 | 2 | 95 | 11 |  |  |  |  |  |  |  | IC50 (Ret(h); read-out: IC50 (nM) Ret (h)): 1 nM
2 | C/C=C/c1cc(Nc2cc(N3CCN(C)CC3)nc(Oc3ccc4[nH]c(C)cc4c3F)n2)n[nH]1 [Compound 53] | 109 |  | 97 |  |  | 99 |  | 98 | 98 |  | 95 |  |  |  |  |  |  |  |  | IC50 (Abl(h); Abl, read-out: IC50): 0.6 nM; IC50 (Aurora-A(h); Aurora-A, read-out: IC50): 4 nM; IC50 (FGFR1(h); FGFR1, read-out: IC50): 0.5 nM; IC50 (Flt3(h); Flt3, read-out: IC50): 13 nM; IC50 (Ret(h); Ret, read-out: IC50): 2 nM; IC50 (cSRC(h); cSrc, read-out: IC50): 2 nM; IC50 (KDR(h); VEGFR2, read-out: IC50): 16 nM
3 | C/C=C/c1cc(Nc2cc(N3CCNCC3)nc(Oc3ccc4[nH]c(C)cc4c3F)n2)n[nH]1 [Compound 68] | 107 | 0.3 | 99 | 10 | 0.6 | 100 | 4 | 99 | 96 | 2 | 92 | 12 |  |  |  |  |  |  |  | 
4 | C/C=C/c1cc(Nc2cc(N3CCN(CCO)CC3)nc(Oc3cc(F)c4[nH]c(C)cc4c3F)n2)n[nH]1 [Compound 88] | 113 | 1 | 100 |  | 0.2 | 100 | 8 | 99 | 100 | 4 | 96 | 44 |  |  |  |  |  |  |  | 
5 | Cc1cc2c(F)c(Oc3nc(Nc4cc(C5CC5)[nH]n4)cc(N4CCN(C)CC4)n3)ccc2[nH]1 [Compound 10] | 112 | 0.5 | 99 | 2 | 1 | 100 | 11 | 101 | 100 | 3 | 95 |  | 110 | 98 | 100 | 101 | 102 | 103 | 93 | 
6 | Cc1cc2c(F)c(Oc3nc(Nc4cc(C5CC5)[nH]n4)cc(N4CCNCC4)n3)ccc2[nH]1 [Compound 11, N-(5-cyclopropyl-1H-pyrazol-3-yl)-2-((4-fluoro-2-methyl-1H-indol-5-yl)oxy)-6-(piperazin-1-yl)pyrimidin-4-amine] | 111 | 0.5 | 100 | < 0.1 | 0.5 | 100 | 12 | 101 | 101 | 3 | 96 | 12 | 108 | 99 | 100 | 98 | 100 | 98 | 92 | 
